Results reported in PMC10489980, “Design of Potent and Salt-Insensitive Antimicrobial Branched Peptides” (Polymers, 2023).
Values belong to the molecule of their own block, whether it stands above or below them. Residues, ends and D or L forms follow the SMILES beside them.

What was measured:
Format in all cases: cell-based
[1] = tested on: ten test organisms (four Gram-negative bacteria, three Gram-positive bacteria, three fungi)
Description: Ten organisms obtained from the American Type Culture Collection (ATCC; Rockville, MD) were used for antimicrobial assays. Four Gram-negative bacteria included Escherichia coli ATCC 25922, Pseudomonas aeruginosa ATCC 27853, Klebsiella oxytoca ATCC 49131, and Proteus vulgaris ATCC 49132. The three Gram-positive bacteria were Staphylococcus aureus 29213, Micrococcus luteus ATCC 49,732, and Enterococcus faecalis ATCC 29212. The three fungi were Candida albicans ATCC 37092, Candida kefyr ATCC 37095, and Candida tropicalis ATCC 37097. The clinical isolates were obtained from Singapore General Hospital (SGH). […]
Antimicrobial Assays. […] After additional incubation at 37 °C for 16–24 h, the diameter of the clear zone surrounding the wells (colony-free) was measured under a microscope. Antimicrobial activities were expressed in units (0.1 mm = 1 unit), and the MICs (in µM) were determined from the x-intercepts of the dose-response curves. […]
The minimum inhibitory concentrations (MICs) of four series of branched peptides and two standards, tachyplesin-1 and the dendrimer D4R, against four Gram-negative bacteria, three Gram-positive bacteria, and three fungi were determined using a two-stage radial diffusion assay in both low- (without NaCl) and high-salt (with 100 mM NaCl) conditions. […]

[2] = tested on: Escherichia coli ATCC 25922; details: ATCC 25922, 3 h
Outline: (§1)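 High-salt runs added 100 mM NaCl to the underlay gel, which otherwise contained 10 mM sodium phosphate, 0.03% TSB and 0.02% Tween-20 seeded with 1–4 × 10^6 CFU/mL. Colony-free zones around peptide wells after overnight growth gave MICs from dose-response x-intercepts.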

[3] = tested on: Enterococcus faecalis ATCC 29212; details: ATCC 29212, 3 h
Outline: as §1

[4] = tested on: Candida tropicalis ATCC 37097; details: ATCC 37097, 3 h
Outline: as §1

Candida kefyr ATCC 37095 = details: ATCC 37095, 3 h
Outline: as §1

[5] = tested on: Pseudomonas aeruginosa ATCC 27853; details: ATCC 27853, 3 h
Outline: as §1

[6] = tested on: Micrococcus luteus ATCC 49,732; details: ATCC 49, 3 h
Outline: as §1

[7] = tested on: Candida albicans ATCC 37092; details: ATCC 37092, 3 h
Outline: as §1

[8] = tested on: Klebsiella oxytoca ATCC 49131; details: ATCC 49131, 3 h
Outline: as §1

[9] = tested on: Staphylococcus aureus 29213; details: 29213, 3 h
Outline: as §1

[10] = tested on: Proteus vulgaris ATCC 49132; details: ATCC 49132, 3 h
Outline: as §1

MIC in four other organisms, high-salt ([1]; 3 h): < 10 µM
Compound: CC(C)C[C@H](NC(=O)[C@H](CCCNC(=N)N)NC(=O)[C@H](CCCNC(=N)N)NC(=O)[C@@H](N)Cc1ccc(O)cc1)C(=O)NCCCC[C@H](NC(=O)[C@H](CC(C)C)NC(=O)[C@H](CCCNC(=N)N)NC(=O)[C@H](CCCNC(=N)N)NC(=O)[C@@H](N)Cc1ccc(O)cc1)C(=O)NCCCC[C@H](NC(=O)[C@H](CCCCNC(=O)[C@H](CC(C)C)NC(=O)[C@H](CCCNC(=N)N)NC(=O)[C@H](CCCNC(=N)N)NC(=O)[C@@H](N)Cc1ccc(O)cc1)NC(=O)[C@H](CC(C)C)NC(=O)[C@H](CCCNC(=N)N)NC(=O)[C@H](CCCNC(=N)N)NC(=O)[C@@H](N)Cc1ccc(O)cc1)C(N)=O [D4Y] (HELM PEPTIDE1{Y.R.R.L.K.K.[am]}|PEPTIDE2{Y.R.R.L}|PEPTIDE3{Y.R.R.L.K}|PEPTIDE4{Y.R.R.L}$PEPTIDE1,PEPTIDE2,5:R3-4:R2|PEPTIDE3,PEPTIDE4,5:R3-4:R2|PEPTIDE1,PEPTIDE3,6:R3-5:R2$$$V2.0; N-terminus and C-terminus assumed)
antimicrobial activity under high-salt conditions against six of ten tested organisms ([1]; radial diffusion assay, 1% agarose, 10 mM phosphate buffer with 100 mM NaCl, result in words): inactive

MIC, E. coli, H-Salt [2]: 0.5 µM
MIC, E. coli, L-Salt [2]: 0.5 µM
MIC, E. faecalis, H-Salt [3]: 1.6 µM
MIC, E. faecalis, L-Salt [3]: 0.8 µM
MIC, C. tropicalis, H-Salt [4]: 0.9 µM
MIC, C. tropicalis, L-Salt [4]: 1.2 µM
MIC, C. kefyr, H-Salt (Candida kefyr ATCC 37095): 0.7 µM
MIC, C. kefyr, L-Salt (Candida kefyr ATCC 37095): 0.6 µM
MIC, P. aeruginosa, H-Salt [5]: 0.8 µM
MIC, P. aeruginosa, L-Salt [5]: 0.6 µM
MIC, M. luteus, H-Salt [6]: 0.6 µM
MIC, M. luteus, L-Salt [6]: 1.0 µM
MIC, C. albicans, H-Salt [7]: 0.8 µM
MIC, C. albicans, L-Salt [7]: 0.8 µM
MIC, K. oxytoca, H-Salt [8]: 1.3 µM
MIC, K. oxytoca, L-Salt [8]: 0.5 µM
MIC, S. aureus, H-Salt [9]: 0.7 µM
MIC, S. aureus, L-Salt [9]: 0.8 µM
MIC, P. vulgaris, H-Salt [10]: 0.7 µM
MIC, P. vulgaris, L-Salt [10]: 0.6 µM
Compound: CC(C)C[C@H](NC(=O)[C@@H](N)CCCNC(=N)N)C(=O)N[C@@H](Cc1ccc(O)cc1)C(=O)N[C@@H](CCCNC(=N)N)C(=O)NCCCC[C@H](NC(=O)[C@H](CCCNC(=N)N)NC(=O)[C@H](Cc1ccc(O)cc1)NC(=O)[C@H](CC(C)C)NC(=O)[C@@H](N)CCCNC(=N)N)C(=O)NCCCC[C@H](NC(=O)[C@H](CCCNC(=N)N)NC(=O)[C@H](Cc1ccc(O)cc1)NC(=O)[C@H](CC(C)C)NC(=O)[C@@H](N)CCCNC(=N)N)C(=O)NCCCC[C@H](NC(=O)[C@H](CCCNC(=N)N)NC(=O)[C@H](Cc1ccc(O)cc1)NC(=O)[C@H](CC(C)C)NC(=O)[C@@H](N)CCCNC(=N)N)C(=O)NCCCC[C@H](NC(=O)[C@H](CCCNC(=N)N)NC(=O)[C@H](Cc1ccc(O)cc1)NC(=O)[C@H](CC(C)C)NC(=O)[C@@H](N)CCCNC(=N)N)C(N)=O [iK5R] (HELM PEPTIDE1{R.L.Y.R.K}|PEPTIDE2{R.L.Y.R}|PEPTIDE3{R.L.Y.R.K}|PEPTIDE4{R.L.Y.R.K}|PEPTIDE5{R.L.Y.R.K.[am]}$PEPTIDE1,PEPTIDE2,5:R3-4:R2|PEPTIDE1,PEPTIDE3,5:R2-5:R3|PEPTIDE3,PEPTIDE4,5:R2-5:R3|PEPTIDE4,PEPTIDE5,5:R2-5:R3$$$V2.0; N-terminus assumed)
